Assay [1] has as its system Aedes aegypti. Description: Arm-in-cage repellent/deterrent bioassay on exposed human forearm (modified WHO protocol), Aedes aegypti. The format is in vivo. The protocol:
(§1) Candidate repellents and deterrents were bioassayed according to a modified protocol from the World Health Organization (1996). At least 1 hour prior to each bioassay, 75 host-seeking non blood-fed, nulliparous, 5- to 8-day-old female Aedes aegypti, Anopheles gambiae or Culex quinquefasciatus were placed into a wood-framed cage (26.5 cm on each side and 42.5 cm high) with a wooden floor, screened mesh sides and top, and a clear acrylic front fitted with a cotton stockinette sleeve (10 cm diameter). The test subject's arm was covered with an elbow-length polyethylene glove with an excised patch (16.6 cm long, 6 cm wide) to expose the ventral forearm of the test subject. Candidate deterrents were formulated in mineral (paraffin) oil and applied to the exposed forearm 5 min prior to inserting the arm into the cage. The inserted arm remained in the cage for 3 min every 30 min. Prior to each 3-min bioassay period, the hand of the untreated arm was inserted into the cage to ascertain that it received 10 bites within 30 sec as an indication of “biting pressure”.
(§2) The bioassay was terminated when the treated arm received ≧2 bites in one 3-min bioassay period or one bite in each of two consecutive bioassay periods. The time elapsed from experiment initiation to first bite was recorded as deterrent failure or complete protection time.
(§3) N,N-diethyl-m-toluamide formulated in ethanol at a corresponding dose served as a positive control, and mineral oil by itself served as a negative control. On each day, only one candidate compound was tested, ensuring that any residual material in the chamber had disappeared before the next bioassay.
To determine the repellence and deterrence of 8-allylsulfanyloctan-1-ol against Aedes aegypti, a 5%, 10% or 25% formulation of 8-allylsulfanyloctan-1-ol in mineral oil was applied in Experiments 1-3 at a dose of 1.5 mg (total composition) per cm^2 to the skin of the test person, and was bioassayed according to the protocol described under EXAMPLE 2. In Experiment 4, mineral oil by itself served as a negative control and was bioassayed at the same dose (1.5 mg per cm^2) as in Experiments 1-3. Each of Experiments 1-4 was replicated four times.
To compare the repellence and deterrence against Aedes aegypti caused by 8-allylsulfanyloctan-1-ol as a single active ingredient and by 8-allylsulfanyloctan-1-ol in combination with vanillin as a second active ingredient, we tested a 6.7% emulsion of vanillin (Experiment 14), a 6.7% emulsion of 8-allylsulfanyloctan-1-ol (Experiment 15), and a 13.4% emulsion of 8-allylsulfanyloctan-1-ol plus vanillin (1:1 ratio) (Experiment 16). 8-Allylsulfanyloctan-1-ol and vanillin were formulated in Emulsion No. 1 (see EXAMPLE 9). In each of Experiments […], test stimuli were applied at a dose of 1.5 mg per cm^2 to the skin of the test person, and were bioassayed according to the protocol described under EXAMPLE 2. In Experiment 17, Emulsion No. 1 served as a positive control and was tested at the same dose (1.5 mg per cm^2) as in Experiments 14-16.
To be able to compare the repellence and deterrence caused by N,N-diethyl-m-toluamide and by 8-allylsulfanyloctan-1-ol plus vanillin in Emulsion No. 1 (EXAMPLE 9), Experiment 26 tested a 6.7% formulation of N,N-diethyl-m-toluamide in ethanol (the best formulant for DEET) for protection from bites by Aedes egypti. In each replicate, a dose of 1.5 mg per […] was applied to the skin of the test person and bioassayed according to the protocol described under EXAMPLE 2.
To be able to further compare the deterrence caused by N,N-diethyl-m-toluamide with that caused by 8-allylsulfanyloctan-1-ol plus vanillin, Experiment 27 tested a 10.4% formulation of N,N-diethyl-m-toluamide in ethanol, and Experiment 28 tested 8-allylsulfanyloctan-1-ol (10.4%) plus vanillin (7.9%) in Emulsion No. 2 (EXAMPLE 10). […]

Assay [2] relates to mosquitoes. Description: General bioassay procedure with garlic oil, its components and fractions (mosquito species not given). It is filed as in vivo. The protocol:
as §1, §2, §3
Garlic oil (Allium sativum—Mexico; Clearwater Soap Works, Box 1775 RR1, Clearwater, BC V0E 1N0, Canada) was formulated in mineral oil and tested using the general bioassay procedure described in EXAMPLE 2 at a dose of 0.1 mg per cm^2 of arm surface. It expressed repellence and deterrence for ˜30 min.
Some of the 10 components in FIG. 1 were bioassayed singly (see general bioassay procedure) and in various combinations, all of which were as deterrent to mosquitoes as garlic oil.
To determine the most deterrent component(s) in garlic oil, it was fractionated by HPLC into four fractions, each containing one or more of the EAD-active components (compounds 1-10 in FIG. 1 and 11-14 in TABLE 2). Each fraction was then bioassayed and shown to be similarly effective in repelling and deterring mosquitoes.
(§4) Components with high molecular weight (>250 daltons) are advantageous in that they: 1) dissipate slowly from treated surfaces; 2) provide long-lasting protection against mosquitoes and 3) convey little, if any, offensive smell. The relative abundance of such components was enhanced by treating garlic oil under vacuum, thus stripping away lower-boiling components. In GC-EAD analyses of the high-boiling residue, four components elicited responses from mosquito antennae.

The test system of assay [3] is male or female Aedes aegypti antennae. Description: Coupled gas chromatographic-electroantennographic detection (GC-EAD) of garlic oil extract. The protocol: FIG. 1 illustrates flame ionization detector (FID) and electroantennograhic detector (EAD: male or female Aedes aegypti antennae) responses to aliquots of the low boiling temperature portion of garlic oil extract. Chromatography: Hewlett Packard (HP) gas chromatograph equipped with a fused silica column (30 m×0.32 mm ID) coated with DB-5; injector and detector temperature: 250° C.; temperature program: 50° C.
Aliquots of garlic oil extracts were then subjected to coupled gas chromatographic-electroantennographic detection (GC-EAD) analysis. Fourteen components (10 shown in FIG. 1) elicited responses from female or male mosquito antennae. Some of these components were isolated by high-performance liquid chromatography (HPLC) for identification by nuclear magnetic resonance spectroscopy (NMR). Other components were identified (compounds 11-14 in TABLE 2) by coupled GC-mass spectrometry and by retention index calculations. […] Four of the 10 components in FIG. 1 were tentatively identified by comparing their mass spectra and retention indices with those reported in the literature (Block et al. 1998).
as §4

Where [4] appears, read: Aedes aegypti, topical, Dosage 0.1 mg/cm^2, (C-T)/C x 100 at time of failure, read-out: Percent repellence.
Where [5] appears, read: Dosage 0.1 mg/cm^2, 0 = immediate failure.

These results are taken from US8889731B2, “Compounds, compositions and methods for repelling blood-feeding arthropods and deterring their landing and feeding” (Contech Enterprises Inc., priority 2007, dated 2014).

Structures are written as SMILES. Like-named read-outs stand apart in the source and are kept apart here.

On to `C=CCSSCCCSSCC=C` [Compound 11, 4,5,9,10-tetrathiatrideca-1,12-diene], for which the pest or weed control at 0.1 mg/cm2 stood at 85% in assay [1] (setting [4]) and 92% in assay [1] (Aedes aegypti, topical, Dosage >0.1 mg/cm^2 (so in the source), (C-T)/C x 100 at time of failure, read-out: Percent repellence). Also, the Failure time was 0 min in assay [1] (setting [5]) and 67.7 min in assay [1] (Dosage >0.1 mg/cm^2 (so in the source)). Besides, the “repellent and deterrent effect in bioassays (in words)” value in assay [2] is “strong repellent and deterrent effect”. In addition, in assay [3], the “electroantennographic (EAD) response of mosquito antennae” value is listed as “Antennal stimulatory”.

Take `C=CCSSCC(C)SSCC=C` (stereo not drawn) [Compound 12, 6-methyl-4,5,8,9-tetrathiadodeca-1,11-diene]: the pest or weed control at 0.1 mg/cm2 in assay [1] (setting [4]) came out at 87%. Also, the pest or weed control at 0.5 mg/cm2 in assay [1] (Aedes aegypti, topical, Dosage 0.5 mg/cm^2, (C-T)/C x 100 at time of failure, read-out: Percent repellence) stood at 97%. Besides, the Failure time was found to be 0 min in assay [1] (setting [5]) and 102 min in assay [1] (Dosage 0.5 mg/cm^2). Further, in assay [2], the “repellent and deterrent effect in bioassays (in words)” value is “strong repellent and deterrent effect”. Besides, in assay [3], the “electroantennographic (EAD) response of mosquito antennae” value was “Antennal stimulatory”.
